From paper PMC11831560, “Development of the Pyrido[2,3-d]pyrimidin-7(8H)-one Scaffold toward Potent and Selective NUAK1 Inhibitors” (ACS Medicinal Chemistry Letters, 2025)
Several values for one entry are separate records, joined by “and”; a condition that tells them apart may be missing. Identical values can stand only once.

Tests used:
[1] = biological target: T1, MARK3 (Homo sapiens, UniProt P27448); assay: ADP-Glo biochemical assay MARK3; conditions: for MARK3 pIC50: ADP-Glo assay
T1 construct: purchased MRC PPU
T1 sequence (P27448 whole entry): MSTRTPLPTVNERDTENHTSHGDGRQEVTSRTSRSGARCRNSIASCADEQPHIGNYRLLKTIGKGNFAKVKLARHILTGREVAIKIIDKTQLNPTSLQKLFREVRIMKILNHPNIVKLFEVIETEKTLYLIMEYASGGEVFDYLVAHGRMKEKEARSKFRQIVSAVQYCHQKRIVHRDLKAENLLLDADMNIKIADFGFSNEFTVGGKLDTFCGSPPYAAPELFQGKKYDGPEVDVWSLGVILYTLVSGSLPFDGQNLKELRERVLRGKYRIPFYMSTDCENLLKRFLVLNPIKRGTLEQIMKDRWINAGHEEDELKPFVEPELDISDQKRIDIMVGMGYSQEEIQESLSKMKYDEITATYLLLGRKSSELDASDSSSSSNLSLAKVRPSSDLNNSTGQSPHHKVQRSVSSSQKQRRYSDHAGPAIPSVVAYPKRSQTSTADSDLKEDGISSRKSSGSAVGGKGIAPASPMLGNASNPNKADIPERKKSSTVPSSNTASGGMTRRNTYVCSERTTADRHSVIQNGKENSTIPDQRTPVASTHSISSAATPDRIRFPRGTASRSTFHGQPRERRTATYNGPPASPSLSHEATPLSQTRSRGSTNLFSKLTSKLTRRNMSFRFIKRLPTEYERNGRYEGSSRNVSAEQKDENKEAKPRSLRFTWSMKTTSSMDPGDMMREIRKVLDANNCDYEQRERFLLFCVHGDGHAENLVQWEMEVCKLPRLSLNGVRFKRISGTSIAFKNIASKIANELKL
How it was run: (§1)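 Purified human kinase incubated 60 min at room temperature with peptide substrate (e.g. Sakamototide) and ATP at Km in 30 mM HEPES pH7.4, 3 mM MgCl2, 3 mM MnCl2, 1.2 mM DTT, 0.01% CHAPS, with serially diluted compounds. ADP formed quantified by ADP-Glo luminescence.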

[2] = tested on: MDR1 (P-gp); assay: MDR1-MDCK permeability (bi-directional); type: in vitro ADME, canine; conditions: dog; for Papp at 60 min, 10 µM: MDR1-MDCK
Description: (§2) All single point assay determinations carried out in duplicate.

[3] = Plasma protein binding; type: in vitro ADME; conditions: mouse plasma, read-out: PPB Fu
Description: as §2

[4] = Brain protein binding; type: in vitro ADME; conditions: mouse brain tissue, read-out: BPB Fu
Description: as §2

[5] = biological target: TBK1 (Homo sapiens, UniProt Q9UHD2); assay: Kinase panel radiometric filter binding (33P-ATP); type: biochemical
Protocol: (§3) Table S4: AMPKA kinase activity data (ADP-Glo assay)
(§4) Compound pIC50 (Fold selectivity
(§5) Table S5. Kinase selectivity screening for 9 and 24 at 1 µM against a general kinase panel of 140 targets
(§6) in radiometric filter binding assay using 33P-γ−ATP at the MRC PPU International Centre for Kinase
(§7) Profiling, University of Dundee. pIC50 values were determined for compounds with <20% activity
(§8) Kinase activity s.d. pIC50 activity s.d. pIC50

[6] = biological target: TLK1 (Homo sapiens, UniProt Q9UKI8); assay: Kinase panel radiometric filter binding (33P-ATP); type: biochemical
Chain of TLK1 (Q9UKI8 whole entry): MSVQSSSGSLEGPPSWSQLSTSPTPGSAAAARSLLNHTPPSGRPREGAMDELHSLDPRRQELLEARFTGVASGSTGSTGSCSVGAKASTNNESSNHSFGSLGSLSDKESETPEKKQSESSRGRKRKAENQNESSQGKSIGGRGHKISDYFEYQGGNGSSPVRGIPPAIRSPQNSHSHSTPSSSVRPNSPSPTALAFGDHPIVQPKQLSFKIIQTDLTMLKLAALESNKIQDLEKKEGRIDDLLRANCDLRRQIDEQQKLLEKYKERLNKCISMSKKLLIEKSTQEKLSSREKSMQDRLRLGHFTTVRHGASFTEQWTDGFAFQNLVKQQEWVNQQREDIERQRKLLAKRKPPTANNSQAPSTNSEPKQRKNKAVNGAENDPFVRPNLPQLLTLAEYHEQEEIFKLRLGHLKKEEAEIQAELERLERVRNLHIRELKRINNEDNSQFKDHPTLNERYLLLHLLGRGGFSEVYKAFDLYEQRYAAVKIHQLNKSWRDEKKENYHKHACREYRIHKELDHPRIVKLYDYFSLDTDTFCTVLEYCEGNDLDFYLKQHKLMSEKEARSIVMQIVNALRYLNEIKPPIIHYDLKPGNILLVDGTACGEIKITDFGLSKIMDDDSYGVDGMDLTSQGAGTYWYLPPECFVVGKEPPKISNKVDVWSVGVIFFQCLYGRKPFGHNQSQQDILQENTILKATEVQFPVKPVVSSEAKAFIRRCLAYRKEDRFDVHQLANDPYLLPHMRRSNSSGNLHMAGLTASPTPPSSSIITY
Protocol: as §3, §4, §5, §6, §7, §8

[7] = biological target: p38g MAPK (Homo sapiens, UniProt P53778); assay: Kinase panel radiometric filter binding (33P-ATP); type: biochemical
Chain of p38g MAPK (P53778 whole entry): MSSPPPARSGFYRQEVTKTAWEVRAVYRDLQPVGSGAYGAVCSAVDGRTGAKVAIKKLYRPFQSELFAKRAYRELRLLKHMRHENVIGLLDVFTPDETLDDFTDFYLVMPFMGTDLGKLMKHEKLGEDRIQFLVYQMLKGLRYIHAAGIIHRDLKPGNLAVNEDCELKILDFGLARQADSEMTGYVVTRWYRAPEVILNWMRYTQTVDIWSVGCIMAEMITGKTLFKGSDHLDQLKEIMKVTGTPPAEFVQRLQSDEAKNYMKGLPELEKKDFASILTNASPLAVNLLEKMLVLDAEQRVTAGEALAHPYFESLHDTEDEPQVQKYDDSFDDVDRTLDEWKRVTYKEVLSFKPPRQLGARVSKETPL
Protocol: as §3, §4, §5, §6, §7, §8

[8] = biological target: IGF-1R (Homo sapiens, UniProt P08069); assay: Kinase panel radiometric filter binding (33P-ATP); type: biochemical; set-up: % activity remaining: dose or concentration left out as unconfirmed; conditions: for % activity remaining: IGF-1R
Protocol: as §3, §4, §5, §6, §7, §8

[9] = biological target: T2, MARK2 (Homo sapiens, UniProt Q7KZI7); assay: Kinase panel radiometric filter binding (33P-ATP); type: biochemical; set-up: % activity remaining: dose or concentration left out as unconfirmed; conditions: for % activity remaining: MARK2
T2 construct: purchased MRC PPU
T2 sequence (Q7KZI7 whole entry): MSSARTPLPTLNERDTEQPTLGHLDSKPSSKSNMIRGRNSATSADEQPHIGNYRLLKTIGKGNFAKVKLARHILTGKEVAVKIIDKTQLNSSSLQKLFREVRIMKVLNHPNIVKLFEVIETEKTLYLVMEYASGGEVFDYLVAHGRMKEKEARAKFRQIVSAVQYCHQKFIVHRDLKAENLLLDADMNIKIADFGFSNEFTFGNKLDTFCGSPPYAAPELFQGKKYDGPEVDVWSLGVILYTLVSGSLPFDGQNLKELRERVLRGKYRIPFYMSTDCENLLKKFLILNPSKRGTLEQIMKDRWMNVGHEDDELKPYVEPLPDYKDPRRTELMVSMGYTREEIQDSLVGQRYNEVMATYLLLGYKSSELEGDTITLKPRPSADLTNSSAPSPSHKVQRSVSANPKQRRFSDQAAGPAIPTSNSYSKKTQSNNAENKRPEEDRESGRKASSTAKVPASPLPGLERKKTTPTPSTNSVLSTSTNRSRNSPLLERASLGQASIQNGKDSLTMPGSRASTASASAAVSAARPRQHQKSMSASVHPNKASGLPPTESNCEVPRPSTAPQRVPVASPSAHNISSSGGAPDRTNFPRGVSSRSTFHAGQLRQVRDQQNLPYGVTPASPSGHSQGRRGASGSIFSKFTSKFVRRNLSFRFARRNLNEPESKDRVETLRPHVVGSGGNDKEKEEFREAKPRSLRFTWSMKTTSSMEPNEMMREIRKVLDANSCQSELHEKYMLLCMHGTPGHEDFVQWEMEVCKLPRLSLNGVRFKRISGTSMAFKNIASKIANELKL
Protocol: as §3, §4, §5, §6, §7, §8

[10] = biological target: SIK2 (Homo sapiens, UniProt Q9H0K1); assay: Kinase panel radiometric filter binding (33P-ATP); type: biochemical; set-up: % activity remaining: dose or concentration left out as unconfirmed; conditions: for % activity remaining: SIK2
Chain of SIK2 (Q9H0K1 whole entry, species assumed): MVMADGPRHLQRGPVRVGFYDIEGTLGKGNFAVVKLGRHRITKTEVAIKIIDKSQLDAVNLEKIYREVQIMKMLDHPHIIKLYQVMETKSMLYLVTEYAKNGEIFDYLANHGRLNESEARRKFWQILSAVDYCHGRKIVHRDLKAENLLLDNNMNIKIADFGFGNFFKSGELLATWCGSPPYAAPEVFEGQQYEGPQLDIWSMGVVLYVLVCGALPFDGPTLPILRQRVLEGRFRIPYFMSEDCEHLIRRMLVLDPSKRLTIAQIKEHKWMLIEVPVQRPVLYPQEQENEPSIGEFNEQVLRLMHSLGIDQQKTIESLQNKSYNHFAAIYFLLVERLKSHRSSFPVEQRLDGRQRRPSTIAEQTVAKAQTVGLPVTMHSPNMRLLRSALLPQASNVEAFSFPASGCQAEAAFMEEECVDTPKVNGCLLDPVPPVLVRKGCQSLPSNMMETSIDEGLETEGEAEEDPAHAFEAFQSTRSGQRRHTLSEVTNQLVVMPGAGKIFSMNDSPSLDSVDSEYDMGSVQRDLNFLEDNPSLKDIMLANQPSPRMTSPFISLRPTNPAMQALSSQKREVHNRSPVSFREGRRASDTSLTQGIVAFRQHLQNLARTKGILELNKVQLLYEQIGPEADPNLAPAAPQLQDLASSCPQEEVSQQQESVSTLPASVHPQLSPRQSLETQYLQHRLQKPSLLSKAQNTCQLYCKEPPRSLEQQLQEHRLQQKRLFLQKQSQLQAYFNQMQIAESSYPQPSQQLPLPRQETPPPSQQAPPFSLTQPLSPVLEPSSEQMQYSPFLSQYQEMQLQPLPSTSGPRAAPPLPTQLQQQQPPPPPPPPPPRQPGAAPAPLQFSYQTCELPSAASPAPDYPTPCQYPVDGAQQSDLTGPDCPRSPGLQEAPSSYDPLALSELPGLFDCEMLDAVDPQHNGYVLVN
Protocol: as §3, §4, §5, §6, §7, §8

[11] = biological target: TrkA (Homo sapiens, UniProt P04629); assay: Kinase panel radiometric filter binding (33P-ATP); type: biochemical; set-up: % activity remaining: dose or concentration left out as unconfirmed; conditions: for % activity remaining: TrkA
Chain of TrkA (P04629 33-796, species assumed): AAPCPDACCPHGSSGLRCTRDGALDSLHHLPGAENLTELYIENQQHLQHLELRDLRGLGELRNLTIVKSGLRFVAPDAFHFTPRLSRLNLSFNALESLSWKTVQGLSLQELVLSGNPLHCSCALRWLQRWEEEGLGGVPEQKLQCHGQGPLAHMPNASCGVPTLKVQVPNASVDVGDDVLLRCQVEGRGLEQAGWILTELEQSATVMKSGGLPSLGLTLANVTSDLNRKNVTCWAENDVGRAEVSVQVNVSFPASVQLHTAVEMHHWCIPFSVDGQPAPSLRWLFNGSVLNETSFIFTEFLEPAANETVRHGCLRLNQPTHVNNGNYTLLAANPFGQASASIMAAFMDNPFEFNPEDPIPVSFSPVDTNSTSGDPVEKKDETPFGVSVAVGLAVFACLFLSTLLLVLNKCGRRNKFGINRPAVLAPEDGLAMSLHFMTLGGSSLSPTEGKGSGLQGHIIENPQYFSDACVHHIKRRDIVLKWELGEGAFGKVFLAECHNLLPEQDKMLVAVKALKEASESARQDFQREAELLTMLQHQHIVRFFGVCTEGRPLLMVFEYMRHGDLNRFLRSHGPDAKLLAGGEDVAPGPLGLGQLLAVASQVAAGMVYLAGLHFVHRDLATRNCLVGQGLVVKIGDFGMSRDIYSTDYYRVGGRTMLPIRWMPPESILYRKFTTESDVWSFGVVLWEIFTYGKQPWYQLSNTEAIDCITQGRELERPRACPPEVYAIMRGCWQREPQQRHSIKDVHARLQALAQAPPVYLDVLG
Protocol: as §3, §4, §5, §6, §7, §8

[12] = biological target: YES1 (Homo sapiens, UniProt P07947); assay: Kinase panel radiometric filter binding (33P-ATP); type: biochemical; set-up: % activity remaining: dose or concentration left out as unconfirmed; conditions: for % activity remaining: YES1
Chain of YES1 (P07947 whole entry, species assumed): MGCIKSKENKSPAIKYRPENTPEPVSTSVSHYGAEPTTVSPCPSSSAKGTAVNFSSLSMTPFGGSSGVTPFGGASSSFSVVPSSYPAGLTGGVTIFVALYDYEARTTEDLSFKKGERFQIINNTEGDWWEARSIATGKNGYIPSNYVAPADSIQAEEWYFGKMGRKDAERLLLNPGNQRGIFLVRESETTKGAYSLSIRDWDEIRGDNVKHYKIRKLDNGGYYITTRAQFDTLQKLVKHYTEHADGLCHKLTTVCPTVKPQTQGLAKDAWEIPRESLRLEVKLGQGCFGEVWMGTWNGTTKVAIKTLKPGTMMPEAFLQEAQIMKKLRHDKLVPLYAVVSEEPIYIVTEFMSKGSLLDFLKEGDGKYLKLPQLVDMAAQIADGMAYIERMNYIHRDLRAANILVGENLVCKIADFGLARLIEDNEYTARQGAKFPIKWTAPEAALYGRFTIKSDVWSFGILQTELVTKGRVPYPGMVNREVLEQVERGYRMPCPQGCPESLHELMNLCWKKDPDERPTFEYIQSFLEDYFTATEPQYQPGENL
Protocol: as §3, §4, §5, §6, §7, §8

[13] = in vivo; conditions: male, CD-1, mouse, ip, 5 mg/kg
Protocol: (§9) To investigate the effect of increasing mouse microsomal stability on in vivo half-lives, 9, 10 and 24 were coadministered with 3 in a mouse PK cassette (5 mgkg^–1, I.P.) (Table 5).
ADMET and PK experimental methods
(§10) Microsomal stability: analysis was performed by Cyprotex Discovery. Briefly, test compounds in
(§11) microsomes (0.5 mg protein/mL) in the presence of NADPH (1 mM) at 37 °C. Aliquots were taken at
(§12) generic LC-MS/MS conditions for compound remaining, allowing the determination of the half-life for
(§13) MDR1-MDCK Permeability (bi-directional): was performed by Cyprotex Discovery. Briefly,
(§14) compounds were administered at 10 µM (1% DMSO final) to the apical or basolateral side of a
(§15) confluent monolayer of MDR1- MDCK cells, then incubated at 37 °C for 60 minutes before appearance
(§16) on the opposite side of the monolayer was determined LC-MS/MS. The efflux ratio (ER) is calculated
(§17) from the ratio of B-A to A-B permeabilities.
(§18) Plasma protein binding: was performed by ChemPartner Co. Ltd. Briefly, compounds in DMSO (1
(§19) µM, 0.2% DMSO final) were added to mouse plasma or brain tissue and dialysed against buffer for 5
(§20) hrs at 37 °C. The compound concentration in each of the plasma and buffer compartments was
(§21) determined by mass spectrometry and used to calculate the percentage compound bound.
(§22) Pharmacokinetic analysis: was performed by ChemPartner Co. Ltd. Male CD-1 mice (N=3 per
(§23) timepoint) were intraperitoneally dosed at 5 mg/kg, as a cassette of five compounds, formulated in 10%
(§24) DMSO, 10% Solutol HS 15, 80% (50 mM citrate buffer pH3.0) at 0.5 mg/mL. At the designated time
(§25) points a blood sample was collected from the facial vein into K2EDTA tubes, and plasma separated by
(§26) centrifugation. Mice were euthanised by CO2 inhalation and brains were dissected and homogenised.
(§27) Compound levels were quantified by LC-MS/MS and PK parameters estimated by a non-compartmental
model using WinNonlin 8.2.

[14] = biological target: T3, NUAK1 (Homo sapiens, UniProt O60285); assay: ADP-Glo biochemical assay NUAK1; set-up: purchased MRC PPU; conditions: ADP-Glo assay
T3 sequence (O60285 1-661): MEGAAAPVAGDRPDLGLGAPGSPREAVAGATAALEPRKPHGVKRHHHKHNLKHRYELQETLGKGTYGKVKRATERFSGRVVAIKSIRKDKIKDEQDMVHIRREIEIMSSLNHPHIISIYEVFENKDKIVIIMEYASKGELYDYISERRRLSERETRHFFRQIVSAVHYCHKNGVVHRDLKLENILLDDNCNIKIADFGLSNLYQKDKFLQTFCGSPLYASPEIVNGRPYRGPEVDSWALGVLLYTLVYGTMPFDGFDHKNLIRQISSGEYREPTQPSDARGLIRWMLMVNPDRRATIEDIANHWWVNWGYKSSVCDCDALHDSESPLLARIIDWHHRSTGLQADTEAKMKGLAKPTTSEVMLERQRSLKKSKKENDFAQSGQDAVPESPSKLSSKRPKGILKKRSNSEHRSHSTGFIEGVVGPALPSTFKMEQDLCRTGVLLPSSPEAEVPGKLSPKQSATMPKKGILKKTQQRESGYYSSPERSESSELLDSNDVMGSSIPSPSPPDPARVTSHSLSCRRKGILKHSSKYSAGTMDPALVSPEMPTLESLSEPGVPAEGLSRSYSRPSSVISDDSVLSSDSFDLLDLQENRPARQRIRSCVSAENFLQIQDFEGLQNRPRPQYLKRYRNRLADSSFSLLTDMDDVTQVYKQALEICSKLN
How it was run: as §1

[15] = Mouse PK cassette (5 mg/kg, I.P.); conditions: for Kp uu at 0.5 h / Kp at 0.5 h: male, CD-1, mouse, ip; for Kp uu at 0.5 h: brain / plasma (unbound); for Kp at 0.5 h: brain / plasma; for AUCinf / Plasma t1/2: mouse, I.P., cassette
Protocol: as §9
ADMET and PK experimental methods
as §10, §11, §12, §13, §14, §15, §16, §17, §18, §19, §20, §21, §22, §23, §24, §25, §26, §27
model using WinNonlin 8.2.

[16] = MDCK-MDR1, ratio of B-A to A-B permeabilities, read-out: MDCK ER (efflux ratio)
[17] = radiometric filter binding panel

Structure (SMILES) | MARK3 pIC50 [1] | MARK3 Fold selectivity IC50/NUAK1 IC50 [1] | efflux ratio at 1 h, 10 µM [2, 16] | Papp at 60 min, 10 µM [2] | fraction unbound at 5 h, 1 µM [3] | fraction unbound at 5 h, 1 µM [4] | % activity remaining [5] | % activity remaining [6] | % activity remaining [7] | % activity remaining [8] | % activity remaining [9] | % activity remaining [10] | % activity remaining [11] | % activity remaining [12] | concentration at 30 min [13] | concentration at 2 h [13] | NUAK1 pIC50 [14] | Kp uu at 0.5 h [15] | Kp at 0.5 h [15] | AUCinf [15] | further results
Cc1cc(=O)n(C2CCCC2)c2nc(Nc3ccc(N4CC5CC(C4)N5C)cc3)ncc12 [Compound 9] | 6.2 | 112 fold | 4.8 | 1.01 ×10⁻⁶ cm/s | 0.011 | 0.006 | 66% | 59% | 97% | 18% | 98% | 44% | 12% | 13% | 573 ng/mL | 176 ng/mL | 8.3 | 0.4 | 0.8 | 1358 ng·h/mL | IC50 ([8]; radiometric filter binding panel, read-out: IGF-1R pIC50 (converted)): 1050 nM; inhibition at 1 µM ([9]; at 1 μM, radiometric filter binding assay, Dundee, read-out: MARK2 single point % inhibition): 2%; IC50 [11]: 97.7 nM; TrkA pIC50 [11, 17]: > 7; YES1 pIC50 [12, 17]: > 7; IC50 ([12]; radiometric filter binding panel, read-out: YES1 pIC50 (converted)): 75.9 nM; IC50 ([14]; read-out: NUAK1 pIC50 (converted)): 5.5 nM; Plasma t1/2 [15]: 54 min
CN1C2CC1CN(c1ccc(Nc3ncc4ccn(CC5CCOCC5)c4n3)cc1)C2 [Compound 24] | 5.22 and 5.2 | 1905 fold | 71 | 1.05 ×10⁻⁶ cm/s | 0.152 | 0.09 | 41% | 86% | 92% | 104% | 101% | 13% | 72% | 46% | 220 ng/mL | 26.9 ng/mL | 8.5 | 0.52 | 0.9 | 365 ng·h/mL | efflux ratio at 60 min, 10 µM [2, 16]: 70.8; SIK2 pIC50 [10, 17]: 7.1 and 7.09; Plasma t1/2 [15]: 42 min
